Measured values published in ChEMBL document CHEMBL3792353, “Differentiation of ROMK potency from hERG potency in the phenacetyl piperazine series through heterocycle incorporation” (Bioorg Med Chem Lett, 2016).

Experiments:
Conditions in all cases: in vivo
Rattus norvegicus = assay: Dose normalized AUC in Sprague-Dawley rat at 2 mg/kg, po; format: ADME, organism-based
[1] = Half life of compound in Sprague-Dawley rat at 1 mg/kg, iv and 2 mg/kg, po; format: ADME, organism-based
[2] = Oral bioavailability in Sprague-Dawley rat at 2 mg/kg; format: ADME, organism-based
[3] = Half life of compound in beagle dog at 0.5 mg/kg, iv; format: ADME, organism-based, Canis lupus familiaris
Rhesus monkey = assay: Dose normalized AUC in rhesus monkey at 0.5 mg/kg, po; format: ADME, organism-based, Macaca mulatta
[4] = Half life of compound in rhesus monkey at 0.25 mg/kg, iv and 0.5 mg/kg, po; format: ADME, organism-based, Macaca mulatta
[5] = Oral bioavailability in rhesus monkey at […]; format: ADME, organism-based, Macaca mulatta
Canis familiaris = assay: fCmax in vagotomized beagle dog at 10 mg/kg, iv administered as cumulative dose; format: ADME, organism-based, Canis lupus familiaris

Cc1cc(-n2cnnn2)cnc1CC(=O)N1CCN(CCc2ccc3c(c2C)COC3=O)CC1
AUC/dose (Rattus norvegicus): 0.35 µM·kg·h/mg
half-life [1]: 19.8 min
bioavailability [2]: 18%

O=C1OCc2cc(CCN3CCN(C(=O)Cc4ccc(-n5cnnn5)cc4)CC3)ccc21
AUC/dose (Rattus norvegicus): 0.067 µM·kg·h/mg
half-life [1]: 9.6 min

Cc1c(C(C)CN2CCN(C(=O)Cc3ccc(-n4cnnn4)nc3)CC2)ccc2c1COC2=O (racemic)
AUC/dose (Rattus norvegicus): 0.45 µM·kg·h/mg
half-life [1]: 57.6 min
bioavailability [2]: 25%

Cc1c(CCN2CCN(C(=O)Cc3ccc(-n4cnnn4)nc3)CC2)ccc2c1COC2=O
AUC/dose (Rattus norvegicus): 0.84 µM·kg·h/mg
half-life [1]: 26.4 min
bioavailability [2]: 38%
half-life [3]: 78 min
AUC/dose (Rhesus monkey): 0.001 µM·kg·h/mg
half-life [4]: 66 min
bioavailability [5]: < 1%
fCmax (Canis familiaris): 21 µM

Cc1c(C(F)CN2CCN(C(=O)Cc3ccc(-n4cnnn4)nc3)CC2)ccc2c1COC2=O (racemic)
AUC/dose (Rattus norvegicus): 0.31 µM·kg·h/mg
half-life [1]: 21 min
bioavailability [2]: 46%
